The record followed here is ChEMBL document CHEMBL1671772, “Predicting hERG activities of compounds from their 3D structures: development and evaluation of a global descriptors based QSAR model” (Eur J Med Chem, 2011).

In the first assay the target is T1, Voltage-gated inwardly rectifying potassium channel KCNH2 (Homo sapiens, UniProt Q12809).
T1 sequence (Q12809 whole entry): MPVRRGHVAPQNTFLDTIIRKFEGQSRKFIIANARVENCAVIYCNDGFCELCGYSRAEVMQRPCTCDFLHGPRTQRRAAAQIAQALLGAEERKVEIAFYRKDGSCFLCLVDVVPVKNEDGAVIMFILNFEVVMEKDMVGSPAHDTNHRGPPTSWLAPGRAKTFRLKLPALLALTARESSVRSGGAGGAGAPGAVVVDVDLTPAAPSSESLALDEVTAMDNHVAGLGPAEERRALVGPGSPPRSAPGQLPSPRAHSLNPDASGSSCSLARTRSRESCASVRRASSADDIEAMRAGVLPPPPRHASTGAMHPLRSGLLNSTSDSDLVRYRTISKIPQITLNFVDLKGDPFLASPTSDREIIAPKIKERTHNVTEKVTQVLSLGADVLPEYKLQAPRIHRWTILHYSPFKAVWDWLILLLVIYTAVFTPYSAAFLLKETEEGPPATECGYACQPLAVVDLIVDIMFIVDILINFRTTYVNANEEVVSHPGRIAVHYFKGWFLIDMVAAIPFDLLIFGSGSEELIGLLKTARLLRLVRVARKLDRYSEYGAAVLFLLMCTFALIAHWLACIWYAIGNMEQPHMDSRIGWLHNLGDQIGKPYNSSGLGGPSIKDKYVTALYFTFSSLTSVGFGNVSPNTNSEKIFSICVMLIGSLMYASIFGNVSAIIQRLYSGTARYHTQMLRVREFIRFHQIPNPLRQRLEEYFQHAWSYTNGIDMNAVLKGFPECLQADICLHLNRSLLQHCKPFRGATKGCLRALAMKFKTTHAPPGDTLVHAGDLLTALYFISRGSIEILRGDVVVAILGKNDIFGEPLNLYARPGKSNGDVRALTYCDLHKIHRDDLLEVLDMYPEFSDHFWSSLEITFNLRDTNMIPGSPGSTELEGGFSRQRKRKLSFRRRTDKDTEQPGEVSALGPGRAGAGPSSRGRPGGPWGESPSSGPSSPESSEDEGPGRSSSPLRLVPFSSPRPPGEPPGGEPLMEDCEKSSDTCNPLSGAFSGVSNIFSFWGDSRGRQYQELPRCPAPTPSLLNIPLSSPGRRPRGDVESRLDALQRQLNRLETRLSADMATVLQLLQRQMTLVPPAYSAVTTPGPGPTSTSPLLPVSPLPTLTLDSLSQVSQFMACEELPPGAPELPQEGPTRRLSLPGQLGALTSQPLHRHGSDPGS
The term IC50 denotes the point on the concentration scale where inhibition reaches its midpoint. A high value points to weaker potency. `O=C1NCCN1CCN1CC=C(c2cn(-c3ccc(F)cc3)c3ccc(Cl)cc23)CC1`: the IC50 is 0.01 µM.
Compound `COC(=O)[C@@H]1[C@H]2CC[C@@H](C[C@@H]1O)N2C` showed an IC50 of 417 µM. This IC50 is about 42000-fold higher than that of the compound before.
Take `CCOC(=O)C1C(OC(=O)c2ccccc2)CC2CCC1N2C` (stereo not drawn): the IC50 is 1.2 µM.
Compound `O=C1NCCN1CCN1CCC(c2cn(-c3ccc(F)cc3)c3ccccc23)CC1` showed an IC50 of 0.00692 µM.
The compound `CCC1OC(=O)C(C)C(OC2CC(C)(OC)C(O)C(C)O2)C(C)C(OC2OC(C)CC(N(C)C)C2O)C(C)(O)CC(C)/C(=N/OCOCCOC)C(C)C(O)C1(C)O` (stereo not drawn) gave an IC50 of 36.3 µM.
Consider `c1ccc(-c2[nH]c3ccccc3c2C2CC3CCC(C2)N3c2ccccc2)cc1` (stereo not drawn), for which half-maximal inhibition (IC50) required 0.0178 µM. Compared with the last compound, the IC50 is about 2000-fold lower.
On the same count and under the same terms, under `CN1C2CCC1C(C(=O)O)C(OC(=O)c1ccccc1)C2` (stereo not drawn) stands 3980 µM; under `CCNCCc1cccc(C(F)(F)F)c1`, 537 µM.
The compound `COc1ccc(CC(=O)NCc2ccccc2-c2ccccc2C(=O)NCCc2cccnc2)cc1` had an IC50 of 10 µM.
Same read-out and setting: then `Cc1cn2c(N)c(Cl)cc(C(=O)NCC3CCN(CC(C)C)CC3)c2n1`, with 2.57 µM; and `CC(C)(CN1CCC(=C2c3ccc(F)cc3COc3ccccc32)CC1)C(=O)O`, with 10 µM.
Still for that read-out and setting: under `CO[C@@H]1[C@@H](O[C@@H]2O[C@H](C)[C@@H](O[C@H]3C[C@@](C)(O)[C@@H](OC(=O)CC(C)C)[C@H](C)O3)[C@H](N(C)C)[C@H]2O)[C@@H](CC=O)C[C@@H](C)[C@@H](O)/C=C\C=C\C[C@@H](C)OC(=O)C[C@H]1OC(C)=O` stands 102 µM.
The compound `CCC1OC(=O)C(C)C(OC2CC(C)(OC)C(O)C(C)O2)C(C)C(OC2OC(C)CC(N(C)C)C2O)C(C)(OC)CC(C)C(=O)C(C)C(O)C1(C)O` (stereo not drawn) had an IC50 of 33.1 µM.
`COc1ccc(CC(=O)Nc2cc3c(cc2[N+](=O)[O-])OC(C)(C)[C@H](O)[C@H]3NC2CC2)cc1` returned an IC50 of 43.7 µM.
For the compound `CC1=C2C3OC(=O)C(C)C3C(O)CC2(C)C=CC1=O` (stereo not drawn), inhibition was half-maximal at 110 µM (IC50).
Same read-out and setting: then `CCCC1NC(C)C2C(=O)N=C(c3cc(S(=O)(=O)N4CCN(CC)CC4)ccc3OCC)NN12` (stereo not drawn), with 12.9 µM.
As to `CC(=O)NC(=O)C1CCC(C2N=CC(c3cccc(Br)c3)=N2)CC1` (stereo not drawn), it took 0.501 µM to reach half-maximal inhibition (IC50).
On the same count and under the same terms, under `CCCCCCCN(CC)CCCCc1ccc([N+](=O)[O-])cc1` stands 0.00219 µM; under `Fc1ccc(-n2cc(C3CCNCC3)c3cc(Cl)ccc32)cc1`, 0.204 µM.
For the compound `Fc1ccc(-n2cc(C3CCN(CCN4CCN=C4S)CC3)c3ccccc32)cc1`, the IC50 is 0.00617 µM.
On the same count and under the same terms, under `CC(C)(C)c1ccc2c(ccn2-c2ccc(F)cc2)c1` stands 10 µM; under `CC(=O)c1cn(-c2ccc(F)cc2)c2ccc(Cl)cc12`, 10 µM.
`O=C(OC1Cc2c(O)cc(O)cc2OC1c1cc(O)c(O)c(O)c1)c1cc(O)c(O)c(O)c1` (stereo not drawn) showed an IC50 of 6.03 µM.
In turn, `CC(C)(C)c1ccc(NC(=O)N2CCN(c3ncccc3Cl)CC2)cc1` had an IC50 of 1 µM. Against the preceding compound, the IC50 is about 6-fold lower.
Same read-out and setting: then `CC(C)c1cn(-c2ccc(F)cc2)c2ccc(Cl)cc12`, with 10 µM; and `O=C1NCCN1CCN1CCC(c2cn(C3CCCCC3)c3ccc(Cl)cc23)CC1`, with 0.138 µM; and `CCC(O)(CC)c1cn(-c2ccc(F)cc2)c2ccc(Cl)cc12`, with 15.8 µM.
The same measure, in the same setting: then `O=C1NCCN1CCN1CCC(C2CN(c3ccc(F)cc3)c3ccccc32)CC1` (stereo not drawn), with 0.0234 µM; and `CN1CC(=O)N2[C@H](c3ccc4c(c3)OCO4)c3[nH]c4ccccc4c3C[C@@H]2C1=O`, with 100 µM.
`COC(=O)C1=CCC2CCC1N2C` (stereo in doubt; 21) had an IC50 of 8.91 µM. This IC50 lies about 11-fold lower than the previous one.
Still for that read-out and setting: then `COC(=O)C1=CCC2CCC1N2C` (stereo in doubt; 41), with 170 µM; and `COc1ccc2cc3[n+](cc2c1OC)CCc1cc2c(cc1-3)OCO2` [BERBERINE], with 66.1 µM.
Still for that read-out and setting: under `CC(C)(C)N1CCC(c2ccccc2)(c2ccccc2)CC1` [BUDIPINE] stands 0.851 µM.
The compound `NC(=O)N1c2ccccc2C=Cc2ccccc21` [CARBAMAZEPINE] gave an IC50 of 105 µM.
Still for that read-out and setting: then `COc1cc(N)c(Cl)cc1C(=O)NC1CCN(Cc2ccccc2)CC1` [CLEBOPRIDE], with 0.603 µM.
Regarding `Clc1ccccc1C(c1ccccc1)(c1ccccc1)n1ccnc1` [CLOTRIMAZOLE], inhibition was half-maximal at 3.02 µM (IC50).
The compound `CCCCc1oc2ccc(NS(C)(=O)=O)cc2c1C(=O)c1ccc(OCCCN(CCCC)CCCC)cc1` [DRONEDARONE] had a concentration for half-maximal inhibition (IC50) of 0.316 µM.
Take `CCOP(=O)(Sc1ccccc1)Sc1ccccc1` [EDIFENPHOS]: 50.1 µM corresponded to half-maximal inhibition (IC50).
On the same count and under the same terms, then `CN(C)CCCn1cc(C2=C(c3c[nH]c4ccccc34)C(=O)NC2=O)c2ccccc21` [GF-109203], with 1 µM; and `CC(C(O)c1ccc(O)cc1)N1CCC(Cc2ccccc2)CC1` (stereo not drawn) [IFENPRODIL], with 0.1 µM; and `COC(=O)C1=C(C)NC(C)=C(C(=O)OC(C)C)C1c1cccc2nonc12` (stereo not drawn) [ISRADIPINE], with 50.1 µM.
In the case of `CCCCN1CCCC[C@H]1C(=O)Nc1c(C)cccc1C` [LEVOBUPIVACAINE], the IC50 was 20.9 µM. Against the preceding compound, the IC50 is about 2.4-fold lower.
For the compound `CCC(=O)O[C@@](Cc1ccccc1)(c1ccccc1)[C@@H](C)CN(C)C` [LEVOPROPOXYPHENE], the IC50 was 2.75 µM.
On the same count and under the same terms, then `O=C(OC1CC2CC3CC(C1)N2CC3O)c1c[nH]c2ccccc12` (stereo not drawn) [MDL-74156], with 12 µM; and `Cc1cccc(C)c1NC(=O)C1CCCCN1C` (stereo not drawn) [MEPIVACAINE], with 155 µM.
Same read-out and setting: then `Cc1cccc(C)c1OCC(C)N` (stereo not drawn) [MEXILETINE], with 10 µM; and `O=C(NCCN1CCOCC1)c1ccc(Cl)cc1` [MOCLOBEMIDE], with 79.4 µM.
Turning to `CCOc1cc(N)c(Cl)cc1C(=O)NCC1CN(Cc2ccc(F)cc2)CCO1` (stereo not drawn) [MOSAPRIDE], the IC50 was 4.79 µM.
Same read-out and setting: under `Cc1cc2c(s1)Nc1ccccc1N=C2N1CCN(C)CC1` [OLANZAPINE] stands 0.204 µM.
Turning to `COc1ccc(Cc2nccc3cc(OC)c(OC)cc23)cc1OC` [PAPAVERINE], the IC50 was 7.24 µM.
`CCCC(C)C1(CC)C(=O)NC(=O)NC1=O` (stereo not drawn) [PENTOBARBITAL] gave an IC50 of 132 µM.
On to `CCCN1C[C@H](CSC)C[C@@H]2c3cccc4[nH]cc(c34)C[C@H]21` [PERGOLIDE], for which the midpoint of inhibition, the IC50, lay at 0.12 µM. Compared with the last compound, the IC50 is about 1100-fold lower.
Consider `O=C1CCC(c2ccc(Nc3ccncc3)cc2)=NN1` [SENAZODAN], for which the IC50 was 1.05 µM.

Another assay has as its target T1, Voltage-gated inwardly rectifying potassium channel KCNH2. The source holds these as a separate data set.
As a reminder, the pIC50 is the negative decadic logarithm of the IC50, by convention in mol/L. High values mean a low IC50, low ones a high IC50. The compound `CCc1cn(-c2ccc(F)cc2)c2ccc(Cl)cc12` yielded a negative-log IC50 (pIC50) of 2.46.
Same read-out and setting: then `CCCc1cn(-c2ccc(F)cc2)c2ccc(Cl)cc12`, with 1.59.
The same measure, in the same setting: then `CC(O)c1cn(-c2ccc(F)cc2)c2ccc(Cl)cc12` (stereo not drawn), with 2.34; and `CCC(=O)c1cn(-c2ccc(F)cc2)c2ccc(Cl)cc12`, with 2.7.
Compound `CCC(O)c1cn(-c2ccc(F)cc2)c2ccc(Cl)cc12` (stereo not drawn) registered a negative logarithm of the IC50 (pIC50) of 2.66. This pIC50 and that of the compound before are within 0.2 log units of each other.
